3 molecules from patent US20050107423A1, “Quinolone antibacterial agents” (priority 2003, published 2005) can be followed below.

Converted amounts (≈) assume the structure as drawn.

Assay in all cases: Antibacterial assay, microtitration MIC (Test A)
Holding throughout (type): cell-based

The test system of one test is S. pneumo SV-1. The settings on record: Gram Positive Bacteria; strain SV-1; read-out: Minimum Inhibitory Concentrations S. pneumo SV-1. Put shortly:
(§1)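 Minimum inhibitory concentrations were determined by standard microtitration techniques against the listed Gram-negative and Gram-positive bacterial strains.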

The next test relates to E. faecalis MGH-2. The settings on record: strain MGH-2; for MIC: Enterococcus faecalis, MGH2, Gram Positive Bacteria, read-out: Minimum Inhibitory Concentrations E. faecalis MGH-2. Put shortly:
as §1

The subject of the next test is S. aureus UC-76. The settings on record: strain UC-76; for MIC: Staphylococcus aureus, UC76, Gram Positive Bacteria, read-out: Minimum Inhibitory Concentrations S. aureus UC-76. Put shortly: as §1
A further test concerns S pyogenes C203. The conditions noted are these: Gram Positive Bacteria, strain C203; for MIC: read-out: Minimum Inhibitory Concentrations S pyogenes C203. Summed up: as §1

For the molecule `COc1c(N2CCC(CO)C2)c(F)cc2c(=O)c(C(=O)O)cn(C3CC3)c12` (stereo not drawn) [drawing 342], the MIC with S. pneumo SV-1 was 0.06 µg/mL (≈ 0.159 µM); in the test with E. faecalis MGH-2, 0.06 µg/mL (≈ 0.159 µM); in the test on S. aureus UC-76 it was 0.00403 µg/mL (≈ 0.0107 µM); with S pyogenes C203, 0.06 µg/mL (≈ 0.159 µM).

For the molecule `Cc1c(N2CC(C)(CO)C(C)(CO)C2)c(F)cc2c(=O)c(C(=O)O)cn(C3CC3)c12` (stereo not drawn) [drawing 440], the MIC in the test on S. pneumo SV-1 was found to be 0.5 µg/mL (≈ 1.19 µM). The “Minimum Inhibitory Concentrations E. faecalis MGH-2” value with E. faecalis MGH-2 (Gram Positive Bacteria) is 1 µg/mL. In addition, in the test with S. aureus UC-76 (Gram Positive Bacteria), the “Minimum Inhibitory Concentrations S. aureus UC-76” value is 0.015 µg/mL. Besides, the “Minimum Inhibitory Concentrations S pyogenes C203” value in the test with S pyogenes C203 stood at 1 µg/mL.

Regarding `COc1c(N2C[C@@H](CCO)[C@@H](CCO)C2)c(F)cc2c(=O)c(C(=O)O)cn(C3CC3)c12` [drawing 415], the MIC with S. pneumo SV-1 came out at 0.06 µg/mL (≈ 0.138 µM); in the test with E. faecalis MGH-2, 0.125 µg/mL (≈ 0.288 µM); in the test on S. aureus UC-76, 0.004 µg/mL (≈ 0.00921 µM); in the test on S pyogenes C203, 0.06 µg/mL (≈ 0.138 µM).
